Laboratory results reported in patent publication US8580812B2, “Heteroaryl amide analogues as P2X7 antagonists” (H. Lundbeck A/S, priority 2007, dated 2013).

Target: T1, P2X7 (Homo sapiens, UniProt Q99572)
T1 construct: host or cells: SH-SY5Y
T1 sequence (Q99572 1-595): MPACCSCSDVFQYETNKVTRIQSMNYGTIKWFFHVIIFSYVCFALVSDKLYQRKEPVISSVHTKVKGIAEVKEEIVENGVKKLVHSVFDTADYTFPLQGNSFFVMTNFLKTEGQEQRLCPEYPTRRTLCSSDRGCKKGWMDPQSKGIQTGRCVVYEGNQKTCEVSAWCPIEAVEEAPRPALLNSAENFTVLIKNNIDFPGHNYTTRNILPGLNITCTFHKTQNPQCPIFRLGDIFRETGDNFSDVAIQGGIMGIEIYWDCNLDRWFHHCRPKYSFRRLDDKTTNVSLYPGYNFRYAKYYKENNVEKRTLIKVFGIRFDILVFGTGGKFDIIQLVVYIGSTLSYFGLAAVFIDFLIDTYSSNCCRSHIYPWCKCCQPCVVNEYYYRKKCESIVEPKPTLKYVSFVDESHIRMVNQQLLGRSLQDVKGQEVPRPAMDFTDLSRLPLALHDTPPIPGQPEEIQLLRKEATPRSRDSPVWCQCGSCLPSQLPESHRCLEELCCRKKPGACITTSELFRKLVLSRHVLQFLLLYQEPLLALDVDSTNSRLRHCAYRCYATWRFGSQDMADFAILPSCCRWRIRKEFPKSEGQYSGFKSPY
Test: High Throughput P2X7 Calcium Mobilization Assay (Example 4A), antagonist activity
Assay type: cell-based
Conditions: SH-SY5Y cells, 50% decrease in fluorescence response of cells exposed to 80 μM BzATP
How it was run: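 SH-SY5Y cells loaded with Fluo-4 AM were preincubated 1 h at room temperature with compound (typically 1–2500 nM) in sucrose/HEPES buffer, pH 7.4, then challenged with 80 μM BzATP (final, about EC50). Peak fluorescence over 2 min gave percent inhibition relative to agonist-only wells, and IC50 came from a Hill-equation fit.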

IC50, ≤ 2000 nM:
CN(Cc1cnn(C)c1)C(=O)c1cc2c(C(=O)NCC34CC5CC(CC(C5)C3)C4)cccn2n1 [Compound 49, 4-N-(adamantan-1-ylmethyl)-2-N-methyl-2-N-[(1-methyl-1H-pyrazol-4-yl)methyl]pyrazolo[1,5-a]pyridine-2,4-dicarboxamide]
N[C@@H]1CCN(C(=O)c2cc3c(C(=O)NCC4(c5cccnc5)CCCCC4)cccn3n2)C1 [Compound 57, 2-{[(3R)-3-aminopyrrolidin-1-yl]carbonyl}-N-[(1-pyridin-3-ylcyclohexyl)methyl] pyrazolo[1,5-a]pyridine-4-carboxamide]
Cn1ncc2c1CCN(C(=O)c1cc3c(C(=O)NCC45CC6CC(CC(C6)C4)C5)cccn3n1)C2 [Compound 34, N-(adamantan-1-ylmethyl)-2-[(1-methyl-1,4,6,7-tetrahydro-5H-pyrazolo[4,3-c]pyridin-5-yl)carbonyl]pyrazolo [1,5-a]pyridine-4-carboxamide]
CC(C)CC(CNC(=O)c1cccn2nc(C(=O)N3CC[C@@H](N)C3)cc12)c1cccnc1 (stereo partly drawn) [Compound 56, 2-{[(3R)-3-aminopyrrolidin-1-yl]carbonyl}-N-(4-methyl-2-pyridin-3-ylpentyl)pyrazolo[1,5-a]pyridine-4-carboxamide]
COCCCNC(=O)c1cc2c(C(=O)NCC34CC5CC(CC(C5)C3)C4)cccn2n1 [Compound 38, 4-N-(adamantan-1-ylmethyl)-2-N-(3-methoxypropyl)pyrazolo [1,5-a]pyridine-2,4-dicarboxamide]
CN(Cc1ccccn1)Cc1cc2c(C(=O)NCC34CC5CC(CC(C5)C3)C4)cccn2n1 [Compound 53, N-(adamantan-1-ylmethyl)-2-{[methyl(pyridin-2-ylmethyl)amino]methyl} pyrazolo[1,5-a]pyridine-4-carboxamide]
CN(Cc1cnccn1)Cc1cc2c(C(=O)NCC34CC5CC(CC(C5)C3)C4)cccn2n1 [Compound 55, N-(adamantan-1-ylmethyl)-2-{[methyl(pyrazin-2-ylmethyl)amino]methyl} pyrazolo[1,5-a]pyridine-4-carboxamide]
CN(CCF)C(=O)c1cc2c(C(=O)NCC3(c4ccc(C(F)(F)F)cc4)CCCCC3)cccn2n1 [Compound 93, Pyrazolo[1,5-a]pyridine-2,4-dicarboxylic acid 2-[(2-fluoro-ethyl)-methyl-amide]-4-{[1-(4-trifluoromethyl-phenyl)-cyclohexylmethyl]-amide}]
CN(CC(F)F)C(=O)c1cc2c(C(=O)NCC34CC5CC(CC(C5)C3)C4)cccn2n1 [Compound 75, 4-N-(adamantan-1-ylmethyl)-2-N-(2,2-difluoroethyl)-2-N-methylpyrazolo[1,5-a]pyridine-2,4-dicarboxamide]
CN(Cc1cc2c(C(=O)NCC34CC5CC(CC(C5)C3)C4)cccn2n1)Cc1ccccc1F [Compound 68, N-(adamantan-1-ylmethyl)-2-{[(2-fluorobenzyl)(methyl)amino]methyl}pyrazolo [1,5-a]pyridine-4-carboxamide]
CC(CC(=O)O)c1cc2c(C(=O)NCC34CC5CC(CC(C5)C3)C4)cccn2n1 (stereo not drawn) [Compound 105, 3-{4-[(adamantan-1-ylmethyl)carbamoyl]pyrazolo[1,5-a]pyridin-2-yl}butanoic acid]
O=C(CC12CC3CC(CC(C3)C1)C2)Nc1cccn2nc(C(=O)N3CCOCC3)cc12 [Compound 96, 2-adamantan-1-yl-N-[2-(morpholin-4-ylcarbonyl)pyrazolo [1,5-a]pyridin-4-yl]acetamide]
CCN(CC)[C@@H]1CCN(C(=O)c2cc3c(C(=O)NCC45CC6CC(CC(C6)C4)C5)cccn3n2)C1 [Compound 31, N-(adamantan-1-ylmethyl)-2-{[(3R)-3-(diethylamino)pyrrolidin-1-yl]carbonyl}pyrazolo [1,5-a]pyridine-4-carboxamide]
CC(C)CC(CNC(=O)c1cccn2nc(C(=O)N3CCOCC3)cc12)c1ccc(C(F)(F)F)cc1 (stereo not drawn) [Compound 87, N-{4-methyl-2-[4-(trifluoromethyl)phenyl]pentyl}-2-(morpholin-4-ylcarbonyl)pyrazolo [1,5-a]pyridine-4-carboxamide]
CN(Cc1cccc(F)c1)Cc1cc2c(C(=O)NCC34CC5CC(CC(C5)C3)C4)cccn2n1 [Compound 69, N-(adamantan-1-ylmethyl)-2-{[(3-fluorobenzyl)(methyl)amino]methyl}pyrazolo [1,5-a]pyridine-4-carboxamide]
O=C(NCCF)c1cc2c(C(=O)NCC34CC5CC(CC(C5)C3)C4)cccn2n1 [Compound 62, 4-N-(adamantan-1-ylmethyl)-2-N-(2-fluoroethyl)pyrazolo [1,5-a]pyridine-2,4-dicarboxamide]
CN(CCF)C(=O)c1cc2c(NC(=O)CC34CC5CC(CC(C5)C3)C4)cccn2n1 [Compound 98, 4-[(adamantan-1-ylacetyl)amino]-N-(2-fluoroethyl)-N-methylpyrazolo[1,5-a]pyridine-2-carboxamide]
CCOC(=O)CNC(=O)c1cc2c(C(=O)NCC34CC5CC(CC(C5)C3)C4)cccn2n1 [Compound 41, ethyl N-({4-[(adamantan-1-ylmethyl)carbamoyl]pyrazolo[1,5-a]pyridin-2-yl}carbonyl)glycinate]
